Source: patent US20170234881A1, “METHODS OF DIAGNOSING AND TREATING CANCER” (INSERM ( INSTITUT NATIONAL DE LA SANTÉ ET DE LA RECHERCHE …, priority 2014, published 2017)

Key:
[1] = tested on: TS/A tumors; assay: Growth of TS/A tumors implanted s.c. into mice; format: in vivo; settings: after 13 days, s.c. every day, Tam 56 mg/kg or DDA 20 mg/kg alone
Procedure: FIG. 2. OCDO is a tumor promoter in vitro and in vivo and its inhibition contributes to the anti-tumor effects of Tam and DDA. (A, B) Histograms representing the effect of OCDO or 17β-estrogen (E2) on MCF7 (A) and TS/A (B) cell proliferation after 24 h treatment using a colorimetric immunoassay measuring BrDU incorporation in DNA (C, D) Histogram representing the effect of OCDO on MCF7 (C) and TS/A (D) cell invasion. Data are the mean of three separate experiments (±s.e.m), *P<0.05, **P<0.01, ***P<0.001 (Student's t-test). (E, F) Mice were implanted s.c. with MCF7 (E) or TS/A (F) cells and animals (8 per group) were treated s.c. every day starting on the day of implantation with either the solvent vehicle or OCDO (16 μg/kg for MCF7 or 50 μg/kg for TS/A). Animals were monitored for tumour growth twice a week. The data are representative of three independent experiments. The mean tumor volume±s.e.m is shown, *P<0.05, **P<0.01, ***P<0.001 (analysis of variance (ANOVA), Dunnett's post test). (G) Mean (±s.e.m) of Ki67 positive cell number determined from IHC staining of MCF7 tumor sections from (E), n=8, *P<0.05 (Student's t-test) using HistoQuant, Pannoramic Viewer (3DHistech). (H) Representative Ki67 staining of TS/A tumor sections from (F) showing increased staining in OCDO-treated tumor compared with control-treated tumor. (I, J, K). Murine E0771(I), or human MDA-MB231 (J) or MDA-MB468 (K) cells implanted s.c. into mice (8 per group) and animals were treated s.c. with either the solvent vehicle or OCDO (16 μg/kg for MDA-MB-231 and MDA-MB-468 or 50 μg/kg for E0771). The data are representative of two independent experiments. Statistical analysis was performed as in E and F. (L) Mice were implanted s.c. with TS/A cells and animals (8 per group) were treated s.c. every day with either the solvent vehicle, OCDO (50 μg/kg), Tam (56 mg/kg), DDA (20 mg/kg) or the combination of Tam (56 mg/kg) +OCDO (50 μg/kg) or DDA (20 mg/kg)+OCDO (50 μg/kg). The data are representative of three independent experiments. Statistical analysis was performed as in E and F.
Exponentially growing MCF7, ShMCF7, E0771, MDA-MB231, MDA-MB468 and TS/A cells were collected, washed twice in PBS and resuspended in PBS. TS/A and E9771 tumours were prepared by subcutaneous transplantation of 35×10^3 cells or 3×10^5 cells respectively in 100 μl PBS into the flank of BALB/c or C57B16 mice. For other tumors, 5 to 10×10^6 cells in 200 μl PBS/matrigel (1/1) were injected into the flank of NMRI nude mice. Animals were treated as indicated in the legends. Animals were examined daily, and body weights were measured twice per week. In all the experiments, the tumor volume was determined by direct measurement with a caliper and was calculated using the formula (width^2×length)/2. Tumors were either frozen in liquid nitrogen or fixed in 10% neutral-buffered formalin and embedded in paraffin for immunohistochemical analysis. Paraffin sections were stained with haematoxylin and eosin for histomorphological analyses. Immunohistochemical staining was done on paraffin-embedded tissue sections, using a specific Ki67 antibody (Dako).
We then assayed the anti-growth effect of Tam or DDA against TS/A tumors in the absence and presence of OCDO. As above, TS/A tumors implanted into immunocompetent mice were treated s.c. every day either with either the solvent vehicle (control), OCDO (50 μg/kg), Tam (56 mg/kg), DDA (20 mg/kg) or the combination of Tam (56 mg/kg)+OCDO (50 μg/kg) or DDA (20 mg/kg) +OCDO (50 μg/kg).

[2] = tested on: shHSD2 MCF7 cells; assay: Proliferation of shHSD2 MCF7 cells (BrDU); format: cell-based, human; settings: sh11HSD2 MCF7 cells, 24 h; OCDO 5 μM; cortisone increasing concentrations
Procedure: FIG. 7. Knock-down of 11βHSD2 decreases cell proliferation, invasion and survival in MCF7 cells as well as tumor growth and OCDO reverses these effects. shC or shHSD2 MCF7 cells were analyzed as followed: (A) The proliferation of sh-C or shHSD2 cells treated or not with OCDO 5 μM 24 h was measured using quantification of DNA BrDU incorporation as described in FIG. 2A. (B) The proliferation of sh-C or shHSD2 cells treated or not with increasing concentration of cortisone for 24 h was measured as in (A). (C) The invasiveness of sh-C or shHSD2 cells treated or not with OCDO 5 μM for 72 h was assayed using matrigel-coated filters. (D) the formation of colony by sh-C or shHSD2 cells treated or not with OCDO 1 μM was quantified as described in FIG. 6F. […] Animals were monitored for tumor growth twice a week. […] (F) Mean (±s.e.m) of Ki67 positive cell number determined from IHC staining of shC or shHSD2 MCF7 tumor sections from (E), n=8, *P<0.05 (Student's t-test) using HistoQuant, Pannoramic Viewer (3DHistech).
MCF7 or HEK293T cells (5×10^6 cells) were transfected with 5 μg of the indicated plasmid using the NEON Transfection System and according to the manufacturer's recommendations. […] Several clones were analyzed by immunoblot analysis and real time RT-qPCR for the knock down of the expression of the protein of interest. […]

## CC(C)CCCC(C)[C@H]1CCC2C3C[C@@H](NCCc4cnc[nH]4)[C@@]4(O)C[C@@H](O)CC[C@]4(C)C3CC[C@@]21C (stereo partly drawn) [DDA, 5-hydroxy-6-[2-(1H-imidazol-4-yl)ethylamino]cholestan-3-ol, reference compound]
[1]
  inhibition of TS/A tumor growth compared with the control group: 33%

## CC/C(=C(\c1ccccc1)c1ccc(OCCN(C)C)cc1)c1ccccc1 [Tam, (Z)-2-[4-(1,2-diphenylbut-1-enyl)phenoxy]-N,N-dimethylethanamine, reference compound]
[1]
  inhibition of TS/A tumor growth compared with the control group: 31%

## C[C@]12CCC(=O)C=C1CC[C@@H]1[C@@H]2C(=O)C[C@@]2(C)[C@H]1CC[C@]2(O)C(=O)CO [cortisone, reference compound]
[2]
  effect on the inhibition of cell proliferation induced by 11βHSD2 knock-down: did not
